# Source: patent US20060063810A1, “Combination treatment for impaired motor function in parkinson's disease” (priority 2003, published 2006)
# How the values were obtained:
# [1] = system: Parkinson Disease patients suffering from severe bradykinesia and motor fluctuations (dyskinesias) induced by L-Dopa therapy; assay: Double-blind, randomized, placebo-controlled clinical study of AMN lead-in followed by add-on CIT (Example 9, Method B); assay type: in vivo, human; conditions: patients 1, 2 and 4; first four visits; three weeks of treatment with amantadine only
# Method: The study is conducted in a double-blind, randomized, placebo-controlled, parallel-group design, with 2 treatment phases: 3 weeks open label, up -titration amantadine lead-in phase, follow by a 6 weeks add-on citalopram phase; performed in Parkinson Disease patients suffering from severe bradykinesia and motor fluctuations—dyskinesias—induced by L-Dopa therapy.
# Amantadine Hydrochloride: 50 mg arnantadine hydrochloride is administered as a b.i.d. regimen during 1 week. Up titration to 100 mg amantadine hydrochloride administered as a b.i.d. regimen during the second week. Up titration to 150 mg amantadine hydrochloride administered as a b.i.d. regimen during the third week. […]
# The total score for UPDRS subscale IV is employed to evaluate the severity and characteristics of L-Dopa induced dyskinesias. The total score is calculated as the sum of all scores assigned in the dyskinesia items: 32, 33, 34 and 35; the clinical fluctuations items (calculated as the sum of all scores assigned in items 36, 38 and 39). Items 32, 33, 34 and 35 are recorded according to historical information and item 33 is also modified by office examination. […]
# The total score of the subscale III of the UPDRS is employed to examine parkinsonian symptoms. Motor functionality is assessed as the total motor score calculated as the sum of all scores assigned in items 18, 19, 20, 21, 22, 23, 24, 25, 26, 27, 28, 29, 30 and 31. […]
# HD patients = conditions: cited from earlier work
# [2] = system: single Parkinson's patient; conditions: citalopram added to the anti-Parkinson's drug regime of a single patient; cited from earlier work
# [3] = system: patients suffering from different types of tremors; conditions: human, in vivo; cited from earlier work
# parkinsonian patients = conditions: in vivo; cited from earlier work
# Parkinson's disease = conditions: in vivo; cited from earlier work
# dyskinesia = conditions: normal therapeutic (anti-anxiolytic) levels; cited from earlier work
structure (smiles),measurement,setting,value
NC12CC3CC(CC(C3)C1)C2 [amantadine],UPDRS III scores (motor performance),[1],improvement in motor performance
same,"UPDRS IV scores (severity and characteristics of L-Dopa induced dyskinesias, motor fluctuations)",[1],improvement in motor fluctuations
same,neuropsychologic and psychiatric assessments,HD patients; after 6 and 12 months of therapy,No changes
same,dyskinesias,"HD patients; eight HD patients, oral amantadine 100 mg tid, unblinded, 1-year period, p<0.01",significant reduction of dyskinesias
CN(C)CCCC1(c2ccc(F)cc2)OCc2cc(C#N)ccc21 (stereo not shown) [citalopram],motor symptoms,[2],worsened their motor symptoms
O=c1n(CCCN2CCN(c3cccc(Cl)c3)CC2)nc2ccccn12 [trazodone],tremors,[3],significantly reduced tremors
"CC(C)(C)N1CCC(c2ccccc2)(c2ccccc2)CC1 [Budipine, 1-Tert-butyl-4,4-diphenylpiperidine]","akinesia, rigidity, and tremor",parkinsonian patients,"significantly reduces akinesia, rigidity, and tremor"
same,time to optimal effects after starting treatment,parkinsonian patients,4-6 weeks
O=C1CC2(CCCC2)CC(=O)N1CCCCN1CCN(c2ncccn2)CC1 [buspirone],treatment of Parkinson's disease,Parkinson's disease,ineffective
same,effect on dyskinesia,dyskinesia,no different than placebo
